Assay results taken from US8168651B2, “Protein kinase modulators” (Cylene Pharmaceuticals, Inc., priority 2008, dated 2012).

Assays:
[1] = test system: K-562; assay: Cell proliferation modulatory activity, K-562; format: cell-based; conditions: Homo sapiens, K562; K-562 cells
[2] = target: recombinant human PIM1 (Homo sapiens (Human), UniProt P11309); assay: PIM-1 kinase activity in cell-free in vitro assay; format: biochemical; conditions: cell-free assay; for inhibition at 0.5 µM: 500 nM compound, read-out: PIM-1: % inh 500 nM
Chain of recombinant human PIM1 (P11309 whole entry): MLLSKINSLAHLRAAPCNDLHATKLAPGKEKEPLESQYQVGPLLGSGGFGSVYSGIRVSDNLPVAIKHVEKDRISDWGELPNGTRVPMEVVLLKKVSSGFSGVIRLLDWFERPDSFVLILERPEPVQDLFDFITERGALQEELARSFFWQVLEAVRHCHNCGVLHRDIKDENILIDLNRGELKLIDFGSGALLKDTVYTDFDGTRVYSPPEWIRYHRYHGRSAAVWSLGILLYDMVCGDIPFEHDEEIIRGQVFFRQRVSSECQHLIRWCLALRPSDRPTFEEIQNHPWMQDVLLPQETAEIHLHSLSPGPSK

[3] = target: recombinant human CK2 (Homo sapiens (Human), UniProt P68400); assay: CK2 assay (cell-free, 33P-ATP filter plate); format: biochemical; conditions: 500 nM compound, cell-free assay; read-out: CK2: % inh 500 nM
Chain of recombinant human CK2 (P68400 whole entry): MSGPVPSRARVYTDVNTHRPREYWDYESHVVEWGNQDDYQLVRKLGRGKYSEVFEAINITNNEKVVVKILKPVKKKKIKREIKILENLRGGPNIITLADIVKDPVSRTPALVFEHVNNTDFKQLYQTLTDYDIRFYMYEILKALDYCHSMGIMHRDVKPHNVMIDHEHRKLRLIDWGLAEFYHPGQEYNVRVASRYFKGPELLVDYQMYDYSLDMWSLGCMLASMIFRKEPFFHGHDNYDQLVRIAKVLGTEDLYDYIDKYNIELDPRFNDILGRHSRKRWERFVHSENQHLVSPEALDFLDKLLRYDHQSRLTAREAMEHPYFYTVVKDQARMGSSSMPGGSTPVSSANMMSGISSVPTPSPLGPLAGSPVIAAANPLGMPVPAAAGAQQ
Chain of recombinant human CK2 (P67870 whole entry partner): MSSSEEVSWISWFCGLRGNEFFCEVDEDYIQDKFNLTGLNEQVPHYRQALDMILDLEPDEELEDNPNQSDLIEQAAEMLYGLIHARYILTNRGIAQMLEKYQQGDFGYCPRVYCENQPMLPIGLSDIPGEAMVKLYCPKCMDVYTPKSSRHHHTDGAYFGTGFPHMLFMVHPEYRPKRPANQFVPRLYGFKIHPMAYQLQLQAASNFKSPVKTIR

[4] = test system: HCT-116 human colorectal carcinoma cells; assay: Cell-proliferation assay using Alamar Blue dye; format: cell-based; conditions: Homo sapiens, HCT-116, second HCT-116 column (c8); read-out: HCT-116 (uM) cell proliferation modulatory activity;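 note: cells exposed to compound for about 4 days, then Alamar Blue added and dye fluorescence read after about 4 h, compared with medium-only control wells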
[5] = test system: MV-4-11; assay: Cell proliferation modulatory activity, MV-4-11; format: cell-based; conditions: Homo sapiens, MV4-11; MV-4-11 cells

SMILES | IC50 [1] [µM] | inhibition at 0.5 µM [2] [%] | inhibition at 0.5 µM [3] [%] | IC50 [4] [µM] | IC50 [5] [µM] | IC50 [2] [nM]
CN1CCCC(Nc2nc3cc(C#N)ccc3c3sccc23)C1 (stereo not drawn) | 5.06 | 20.8 | -17.5 | 1.42 | 3.23 | –
N#Cc1ccc2c(c1)nc(NCc1ccc(C(N)=O)cc1)c1ccsc12 | > 10 | -23.8 | -4.69 | > 10 | > 10 | –
CN(C)CCCNc1nc2cc(C#N)ccc2c2sccc12 | > 10 | 23.8 | -30.5 | 3.37 | 7.81 | –
CN(C)CCCN(C)c1nc2cc(C#N)ccc2c2sccc12 | 7.98 | 15.3 | -4.72 | 3.92 | 3.55 | –
CN(C)CCN(C)c1nc2cc(C#N)ccc2c2sccc12 | 1.87 | -3.15 | 64.1 | 0.511 | 1.07 | –
CC1(C)CC(Nc2nc3cc(C#N)ccc3c3sccc23)CC(C)(C)N1 | > 10 | -1.38 | -3.98 | 6.75 | 9.88 | –
CN(C)C1CCN(c2nc3cc(C#N)ccc3c3sccc23)CC1 | > 10 | 20.3 | -0.522 | 6.57 | 6.05 | –
N#Cc1ccc2c(c1)nc(N1CCC(N3CCCC3)CC1)c1ccsc12 | 6.94 | 35.7 | -6.67 | 5.66 | 3.36 | –
N#Cc1ccc2c(c1)nc(NCc1ccccn1)c1ccsc12 | > 10 | 2.17 | 100 | > 10 | > 10 | –
CN(CCc1ccccn1)c1nc2cc(C#N)ccc2c2sccc12 | > 10 | 19.4 | 44.5 | > 10 | > 10 | –
N#Cc1ccc2c(c1)nc(N1CCC(c3cccnc3)C1)c1ccsc12 (stereo not drawn) | > 10 | -11.2 | 0.642 | > 10 | > 10 | –
N#Cc1ccc2c(c1)nc(N1CCN(c3ccccn3)CC1)c1ccsc12 | > 10 | 11 | 7.66 | > 10 | > 10 | –
N#Cc1ccc2c(c1)nc(N1CCNC(=O)C1)c1ccsc12 | > 10 | 8.04 | -4.51 | > 10 | > 10 | –
CC(=O)NC1CCN(c2nc3cc(C#N)ccc3c3sccc23)C1 (stereo not drawn) | > 10 | 5.75 | -8.88 | > 10 | > 10 | –
N#Cc1ccc2c(c1)nc(N1CCC[C@H]1C(N)=O)c1ccsc12 | > 10 | 12.2 | 4.42 | > 10 | > 10 | –
CC(C)(C)OC(=O)N1CCC(Nc2nc3cc(C#N)ccc3c3sccc23)CC1 | > 10 | 2.44 | 1.98 | > 10 | > 10 | –
N#Cc1ccc2c(c1)nc(N1CCC(N)C1)c1ccsc12 (stereo not drawn) | > 10 | 9.1 | -2.47 | > 10 | > 10 | –
CN1CCC(Nc2nc3cc(C#N)ccc3c3sccc23)CC1 | > 10 | 59.1 | -8.22 | 3.44 | 7.52 | 1030
N#Cc1ccc2c(c1)nc(N1CCNCC1)c1ccsc12 | > 10 | 7.88 | -27.3 | 4.09 | 9.33 | –
CC(C)(C)OC(=O)NCCCNc1nc2cc(C#N)ccc2c2sccc12 | > 10 | -30.8 | -11.5 | > 10 | > 10 | –
CC(C)(C)OC(=O)N1CCCC1CNc1nc2cc(C#N)ccc2c2sccc12 (stereo not drawn) | > 10 | -14.7 | -35.2 | > 10 | > 10 | –
CC(C)(C)OC(=O)N1CCCC1CCNc1nc2cc(C#N)ccc2c2sccc12 (stereo not drawn) | > 10 | -13 | -22.4 | > 10 | > 10 | –
CN(c1nc2cc(C#N)ccc2c2sccc12)C(C1CC1)C1CC1 | > 10 | -19 | -17.1 | > 10 | > 10 | –
CN(C)CCCN(C)c1nc2cc(-c3nnn[nH]3)ccc2c2sccc12 | > 10 | 70.5 | 60.1 | > 10 | > 10 | 221
CNC(=O)c1ccc2c(c1)nc(NCCN(C)C)c1ccsc12 | > 10 | 5.73 | 8.24 | > 10 | 0.535 | –

Other lines, results leading:

IC50 [1] [µM] | inhibition at 0.5 µM [2] [%] | inhibition at 0.5 µM [3] [%] | IC50 [4] [µM] | IC50 [5] [µM] | IC50 [2] [nM] | SMILES
> 10 | 0.408 | -34.7 | > 10 | > 10 | – | N#Cc1ccc2c(c1)nc(N1CCC(N3CCOCC3)CC1)c1ccsc12
6.5 | 8.14 | 0.724 | 4.41 | 3.74 | – | CN1CCCC1CNc1nc2cc(C#N)ccc2c2sccc12 (stereo not drawn)
> 10 | 10.6 | 5.18 | > 10 | > 10 | – | N#Cc1ccc2c(c1)nc(NCCc1ccccn1)c1ccsc12
> 10 | 7.13 | 3.48 | > 10 | > 10 | – | CC(=O)N1CCN(c2nc3cc(C#N)ccc3c3sccc23)CC1
> 10 | 15.8 | 24.3 | 8.77 | 4.79 | – | CN1CCN(c2nc3cc(C#N)ccc3c3sccc23)CC1
> 10 | 0.859 | 20.6 | 0.437 | 0.882 | – | CN1CC(Nc2nc3cc(C#N)ccc3c3sccc23)C1
> 10 | 70.1 | 27.1 | 3.15 | 1.26 | 416 | N#Cc1ccc2c(c1)nc(NC1CCNCC1)c1ccsc12
> 10 | 10 | 11 | > 10 | > 10 | – | CC(C)(C)OC(=O)NC1CCN(c2nc3cc(C#N)ccc3c3sccc23)C1 (stereo not drawn)
> 10 | -30.9 | -35 | > 10 | > 10 | – | CC(C)(C)OC(=O)N1CCN(c2nc3cc(C#N)ccc3c3sccc23)CC1
> 10 | 76.6 | 61.4 | 2.51 | > 10 | 129 | N#Cc1ccc2c(c1)nc(NCCCN)c1ccsc12
> 10 | 14.1 | -23.8 | 2.73 | 2.44 | – | N#Cc1ccc2c(c1)nc(NCC1CCCN1)c1ccsc12 (stereo not drawn)
> 10 | 36.2 | 37.1 | 1.87 | 2.82 | – | N#Cc1ccc2c(c1)nc(NCCC1CCCN1)c1ccsc12 (stereo not drawn)
